This is an account of results in US20080026952A1, “HCV replicon shuttle vectors” (priority 2005, published 2008).

The test system of experiment [1] is HCV replicon containing NS5B from Clinical Isolate Pt 7 in Huh7 cells. Kind of experiment: Transient replicon phenotypic assay (firefly luciferase), patient-derived NS5B Pt 7. Format: cell-based, HCV genotype 1a. Conditions: Hepatitis C virus, genotype 1a, Huh-7, 72 h, read-out: 2′-C-Me-C IC50. Here is the method:
(§1) Five micrograms of DNA plasmids were linearized by Sca I restriction enzyme (Roche). After overnight digestion at 37° C., the DNA was purified using Qiagen PCR purification kit. One microgram of linearized DNA was used for the in vitro transcription using T7 Mega script kit following manufacturer's protocol (Ambion). After 2 hours of incubation at 37° C., DNase treatment was performed for 30 minutes at 37° C. to remove the DNA template. In vitro transcribed RNA was then purified using NucAway Spin Column following manufacturer's protocol (Ambion).
(§2) Cured hepatoma cell line Huh7 were cultured at 37° C. in a humidified atmosphere with 5% CO2 in Dulbecco's Modified Eagle Medium (DMEM) supplemented with Glutamax™ and […] sodium pyruvate (Cat #10569-010). The medium was further supplemented with 10% (v/v) FBS (Cat #16000-036) and 1% (v/v) penicillin/streptomycin (Cat #15140-122). All reagents were from Invitrogen/Gibco.
(§3) Four million cured Huh7 cells were transfected with 5 μg of in vitro transcribed RNA using electroporation. […] Inhibitors were added 24 hours post-transfection in 3 fold dilutions at a final DMSO concentration of 1% and firefly luciferase reporter signal was read 72 hours after addition of inhibitors using the Luciferase Assay system (Promega, cat #E1501). […]

Experiment [2] concerns HCV replicon containing NS5B from Clinical Isolate Pt 6 in Huh7 cells. As to the kind of experiment: Transient replicon phenotypic assay (firefly luciferase), patient-derived NS5B Pt 6. Particulars: Hepatitis C virus, genotype 1a, Huh-7, 72 h, read-out: 2′-C-Me-C IC50. The class given is cell-based, HCV genotype 1a. Here is the method: as §1, §2, §3
The subject of experiment [3] is HCV replicon containing NS5B from Clinical Isolate Pt 9 in Huh7 cells. Kind of experiment: Transient replicon phenotypic assay (firefly luciferase), patient-derived NS5B Pt 9. The class given is cell-based, HCV genotype 1a. Conditions: Hepatitis C virus, genotype 1a, Huh-7, 72 h, read-out: 2′-C-Me-C IC50. As to the method: as §1, §2, §3
Experiment [4] concerns HCV replicon containing NS5B from Clinical Isolate Pt 8 in Huh7 cells. Kind of experiment: Transient replicon phenotypic assay (firefly luciferase), patient-derived NS5B Pt 8. Format: cell-based, HCV genotype 1a. Particulars: Hepatitis C virus, genotype 1a, Huh-7, 72 h, read-out: 2′-C-Me-C IC50. As to the method: as §1, §2, §3
(In general: A replicon is a self-replicating genome or part of one, used to study replication in cells.)

In experiment [5] the test system is HCV replicon containing NS5B from Clinical Isolate Pt 5 in Huh7 cells. As to the kind of experiment: Transient replicon phenotypic assay (firefly luciferase), patient-derived NS5B Pt 5. The class given is cell-based, HCV genotype 1a. Conditions: Hepatitis C virus, genotype 1a, Huh-7, 72 h, read-out: 2′-C-Me-C IC50. Here is the method:
as §1, §2, §3

Experiment [6] concerns HCV replicon pSS-1_1a_NS5B_5′AsiSI_3′RsrII in Huh7 cells. As to the kind of experiment: Transient replicon phenotypic assay (firefly luciferase), reference shuttle vector. The class given is cell-based, HCV genotype 1a (H77). Conditions: Hepatitis C virus, Huh-7, 72 h, read-out: 2′-C-Me-C IC50. As to the method: as §1, §2, §3
Experiment [7] has as its system HCV replicons with NS5B from genotype-1a and genotype-1b clinical isolates in Huh-7 cells. As to the kind of experiment: Sensitivity of treatment naive NS5B clinical isolates versus reference replicons (FIG. 3). Format: cell-based, HCV genotype-1a and genotype-1b. Conditions: pools of 96 clones per isolate, reference replicons Con1 (genotype-1b) and H77 (genotype-1a). As to the method:
Four million cured Huh7 cells were transfected with 5 μg of in vitro transcribed RNA using electroporation. Cells were then resuspended in 7.2 ml of DMEM containing 5% FBS and plated in 96-well plate at 50000 cells/well (in 90 μl final volume). Inhibitors were added 24 hours post-transfection in 3 fold dilutions at a final DMSO concentration of 1% and firefly luciferase reporter signal was read 72 hours after addition of inhibitors using the Luciferase Assay system (Promega, cat #E1501). The IC50 values were assessed as the inhibitor concentration at which a 50% reduction in the level of firefly luciferase reporter was observed as compared to the level of firefly luciferase signal without the addition of compounds. Results of studies testing the inhibitory effects of the compound, 2′-C-Methyl-Cytidine, on replication of pSS-1—1a_NS5B—5′AsiSI—3′RsrII and replicons with patient-derived NS5B sequences are shown in Table 2.
In order to test the sensitivity of HCV polymerase inhibitors across genetically diverse and treatment naive clinical isolates, the NS5B coding region from the isolates was amplified and cloned into the replicon shuttle replicons (clinical isolates from genotype-1a were cloned into pSS-1—1a—5′AsiSI_lacZAmC—3′RsrII and genotype-1b clinical isolates were cloned into pSC—1b—5′AsiSI_lacZAmC—3′RsrII). 96 molecular clones were pooled for each clinical isolate. […]

Regarding `C[C@@]1(O)[C@H](O)[C@@H](CO)O[C@H]1n1ccc(N)nc1=O` [2′-C-Me-C, 2′-C-Methyl-Cytidine], the IC50 (in general, the midpoint of a concentration-inhibition curve) came out at 300 ± 50 nM in experiment [1]; 300 ± 40 nM in experiment [2]; 400 ± 60 nM in experiment [3]; 400 ± 70 nM in experiment [4]; 300 ± 50 nM in experiment [5]; 400 ± 30 nM in experiment [6].

Regarding `C1=NNSc2ccccc21` [benzothiadiazine], the “potency across the NS5B clinical isolates as compared to the reference replicons” value in experiment [7] was “variable potencies”.

Consider `O=C(O)c1cccs1` [thiophene-2-carboxylic acid], for which the “potency across the NS5B clinical isolates as compared to the reference replicons” value in experiment [7] is on record as “variable potencies”.
